# Results published in ChEMBL document CHEMBL3758161, “Synthesis and evaluation of antibacterial and antitumor activities of new galactopyranosylated amino alcohols” (Eur J Med Chem, 2016).
# Columns and labels:
# [1] = Lipophilicity, log P of the compound; assay type: physicochemical; settings: octanol/water
# [2] = test system: Mycobacterium tuberculosis; assay: microbe, parasite or virus in culture; settings: H37Rv
# Description: Antibacterial activity against Mycobacterium tuberculosis H37Rv
# Escherichia coli [3] = assay: Bactericidal activity against gram-negative Escherichia coli ATCC 11229 after 24 hrs by broth dilution method; assay type: functional; settings: ATCC 11229, 24 h
# Staphylococcus aureus [4] = assay: Antibacterial activity against gram-positive Staphylococcus aureus ATCC 3591 at 5 mg/ml incubated overnight by agar well diffusion method; assay type: functional; settings: read-out: DIZ
# Staphylococcus aureus [5] = assay: Bactericidal activity against gram-positive Staphylococcus aureus ATCC 3591 after 24 hrs by broth dilution method; assay type: functional; settings: ATCC 3591, 24 h
# Pseudomonas aeruginosa [6] = assay: Bactericidal activity against gram-negative Pseudomonas aeruginosa ATCC 2785 after 24 hrs by broth dilution method; assay type: functional; settings: ATCC 2785, 24 h
# [7] = test system: Staphylococcus epidermidis; assay: Antibacterial activity against gram-positive Staphylococcus epidermidis ATCC 12228 at 5 mg/ml incubated overnight by agar well diffusion method; assay type: functional; settings: read-out: DIZ
# [8] = test system: Staphylococcus epidermidis; assay: Bactericidal activity against gram-positive Staphylococcus epidermidis ATCC 12228 after 24 hrs by broth dilution method; assay type: functional; settings: ATCC 12228, 24 h
# Pseudomonas aeruginosa [9] = assay: Antibacterial activity against gram-negative Pseudomonas aeruginosa ATCC 2785 at 5 mg/ml incubated overnight by agar well diffusion method; assay type: functional; settings: read-out: DIZ
# MCF7 [10] = assay: cells; settings: Homo sapiens, MCF7, 24 h
# Description: Cytotoxicity against human MCF7 cells assessed as cell growth inhibition after 24 hrs by XTT assay
# M059J = assay: Cytotoxicity against human M059J cells assessed as cell growth inhibition after 24 hrs by XTT assay; assay type: functional, cell-based
# Escherichia coli [11] = assay: Antibacterial activity against gram-negative Escherichia coli ATCC 11229 at 5 mg/ml incubated overnight by agar well diffusion method; assay type: functional; settings: read-out: DIZ
# HeLa = assay: Cytotoxicity against human HeLa cells assessed as cell growth inhibition after 24 hrs by XTT assay; assay type: functional, cell-based
# [12] = Cytotoxicity against human GM07492A cells assessed as cell growth inhibition after 24 hrs by XTT assay; assay type: cell-based
# MCF7 [13] = assay: Selectivity index, ratio of IC50 for human GM07492A cells to IC50 for human MCF7 cells; assay type: functional
SMILES,logP [1],MIC [2] [µM],MBC (Escherichia coli [3]) [µM],zone of inhibition at 5000 µg/mL (Staphylococcus aureus [4]) [mm],MBC (Staphylococcus aureus [5]) [µM],MBC (Pseudomonas aeruginosa [6]) [µM],zone of inhibition at 5000 µg/mL [7] [mm],MBC [8] [µM],zone of inhibition at 5000 µg/mL (Pseudomonas aeruginosa [9]) [mm],IC50 (MCF7 [10]) [µM],IC50 (M059J) [µM],zone of inhibition at 5000 µg/mL (Escherichia coli [11]) [mm],IC50 (HeLa) [µM],IC50 [12] [µM],Ratio IC50 (MCF7 [13])
CCCCCCCCCCCCNCCO,3.93,27,–,–,–,–,–,–,–,–,–,–,–,–,–
CCCCCCCCCCCCC(O)CN(CCO)CC(O)COC[C@H]1O[C@@H]2OC(C)(C)O[C@@H]2[C@H]2OC(C)(C)O[C@H]21 (mixture of isomers),–,–,> 868,20,> 868,> 868,18,13,–,–,–,–,–,–,–
CCCCCCCCCCCCCCNCCO [MYRALACT],4.76,49,–,–,–,–,–,–,–,–,–,–,–,–,–
CCCCCCCCCCCCCCNCCNCC(O)COC[C@H]1O[C@@H]2OC(C)(C)O[C@@H]2[C@H]2OC(C)(C)O[C@H]21 (mixture of isomers),3.56,87,445,22,14,> 894,20,14,20,39.3,39.2,10,41.5,24.9,0.6
CCCCCCCCCCCCN(CCO)C[C@H](O)COC[C@H]1O[C@@H]2OC(C)(C)O[C@@H]2[C@H]2OC(C)(C)O[C@H]21,4.22,15,–,–,–,–,–,–,–,182,–,–,162,162,0.8
CCCCCCCCCCNCCNCC(O)COC[C@H]1O[C@@H]2OC(C)(C)O[C@@H]2[C@H]2OC(C)(C)O[C@H]21 (mixture of isomers),3.15,24,> 990,20,8,> 990,20,8,–,28,39.2,16,40.2,63.3,2.3
COc1cc([C@@H]2c3cc4c(cc3[C@@H](O[C@@H]3O[C@@H]5CO[C@@H](C)O[C@H]5[C@H](O)[C@H]3O)[C@H]3COC(=O)[C@H]23)OCO4)cc(OC)c1O [ETOPOSIDE],–,–,–,–,–,–,–,–,–,82.6,58.9,–,226,1.2,0
CCCCCCCCCCCCNCCCN,5.06,103,–,–,–,–,–,–,–,–,–,–,–,–,–
CCCCCCCCN(CCO)CC(O)COC[C@H]1O[C@@H]2OC(C)(C)O[C@@H]2[C@H]2OC(C)(C)O[C@H]21 (mixture of isomers),2.55,> 204,–,–,–,–,–,–,–,–,–,–,–,–,–
CCCCCCCCCCCCCCNCCCN,4.88,46,–,–,–,–,–,–,–,–,–,–,–,–,–
CO[C@H]1/C=C/O[C@@]2(C)Oc3c(C)c(O)c4c(O)c(c(/C=N/N5CCN(C)CC5)c(O)c4c3C2=O)NC(=O)/C(C)=C\C=C\[C@H](C)[C@H](O)[C@@H](C)[C@@H](O)[C@@H](C)[C@H](OC(C)=O)[C@@H]1C [RIFAMPIN],–,1,–,–,–,–,–,–,–,–,–,–,–,–,–
CC[C@@H](CO)NCCN[C@@H](CC)CO [ETHAMBUTOL],–,15,–,–,–,–,–,–,–,–,–,–,–,–,–
CCCCCCCCCCCCCCNCCCNCC(O)COC[C@H]1O[C@@H]2OC(C)(C)O[C@@H]2[C@H]2OC(C)(C)O[C@H]21 (mixture of isomers),4.12,42,–,–,–,–,–,–,–,194,195,–,147,80.3,0.4
CCCCCCCCCCCCNCCCNCC(O)COC[C@H]1O[C@@H]2OC(C)(C)O[C@@H]2[C@H]2OC(C)(C)O[C@H]21 (mixture of isomers),4.09,22,> 916,20,> 916,> 916,19,> 916,–,27.8,34.8,–,34.5,23.5,0.8
CCCCCCCCCCNCCN,2.71,249,–,–,–,–,–,–,–,–,–,–,–,–,–
CCCCCCCCCCCCN(CCO)CC(O)COC[C@H]1O[C@@H]2OC(C)(C)O[C@@H]2[C@H]2OC(C)(C)O[C@H]21 (mixture of isomers),4.22,23,> 938,–,> 938,> 938,20,4,20,104,110,–,125,282,2.7
CCCCCCCCCCCCCCN(CCO)CC(O)COC[C@H]1O[C@@H]2OC(C)(C)O[C@@H]2[C@H]2OC(C)(C)O[C@H]21 (mixture of isomers),5.06,22,> 892,18,111,892,30,3,–,30.8,12.8,–,87.7,83,2.7
